In brackets after ≈: the same amount, converted by molar mass. Read-outs that look alike come from different tables or passages of the source. Marks after values point to notes of the source that are not given here.
Assays:
[1] = system: MRSA-1 (methicillin-resistant Staphylococcus aureus clinical isolate); assay: MIC assay (broth microdilution, CLSI); type: cell-based; settings: Staphylococcus aureus, MRSA, read-out: MIC, MRSA-1
[2] = system: Staphylococcus epidermidis (ATCC 12228); assay: MIC assay (broth microdilution, CLSI); type: cell-based; settings: Staphylococcus epidermidis, ATCC12228
[3] = system: Staphylococcus epidermidis (ATCC 35984), MRSE; assay: MIC assay (broth microdilution, CLSI); type: cell-based; settings: for MIC: Staphylococcus epidermidis
[4] = system: Enterococcus faecium (ATCC 700221), VRE; assay: MIC assay (broth microdilution, CLSI); type: cell-based
[5] = system: M. tuberculosis H37Ra (ATCC 25177); assay: Mycobacterium tuberculosis MIC assay; type: cell-based; settings: Mycobacterium tuberculosis
How it was run: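 Culture diluted to OD600 0.01 and exposed to compounds in 0.5% final DMSO, each compound tested in three rows. Growth read as OD600 absorbance. Data from three independent experiments.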

in vitro = type: cell-based; settings: human
HeLa cells = assay: in vitro; type: cell-based; settings: human, 24 h
human red blood cells = assay: Hemolysis assay with red blood cells; settings: human, 1 h, 200 μM, pH 7.2
How it was run: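 Washed human red blood cells exposed to compounds added from DMSO stocks, 1 h at 37° C.; supernatant OD read at 405 nm after centrifugation. % hemolysis calculated relative to DMSO (0%) and Triton X (100%) controls, from three independent experiments.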

[6] = system: VRE (E. faecium ATCC 700221) planktonic cells and biofilms; assay: Calgary Biofilm Device (CBD) assay, MBC/MBEC; type: cell-based, Enterococcus faecium; settings: c lowest concentration tested; for MBC: Enterococcus
MRSA-2 = assay: MIC assay with Tiron or metal(II) cation co-treatment; type: cell-based, Staphylococcus aureus; settings: Staphylococcus aureus
S. epidermidis 12228 = assay: as above; type: cell-based, Staphylococcus epidermidis; settings: Staphylococcus epidermidis
E. faecium 700221 (VRE) = assay: as above; type: cell-based, Enterococcus faecium
[7] = Mouse toxicity evaluation; type: in vivo, C57BL/6 mice; settings: once daily oral gavage in corn oil, 7 days; 202 22.1 mg/kg, 209 4.2 mg/kg
Protocol: Groups of five C57BL/6 mice (Charles River Laboratories International, Inc.; mice were eight weeks old) were treated once daily with HPs 202 (22.1 mg/kg) and 209 (4.2 mg/kg) for 7 days via oral gavage (0.25 mL of formulated corn oil for 25 gram mouse on average).

MRSA BAA-1707 = assay: MIC assay (broth microdilution, CLSI); settings: Staphylococcus aureus, read-out: MIC, MRSA BAA-1707
MRSA BAA-44 = assay: MIC assay (broth microdilution, CLSI); settings: Staphylococcus aureus, read-out: MIC, MRSA BAA-44
[8] = system: MRSA BAA-1707 planktonic cells and biofilms; assay: Calgary Biofilm Device (CBD) assay, MBC/MBEC; settings: Staphylococcus aureus, read-out: MRSA BAA-1707 MBC
[9] = system: methicillin-sensitive S. aureus strains; assay: MIC assay; type: cell-based; settings: Staphylococcus aureus; read-out: MIC against methicillin-sensitive S. aureus strains
[10] = system: S. aureus clinical isolate SA 129; assay: MIC assay (broth microdilution, CLSI); settings: Staphylococcus aureus, read-out: MIC, SA 129
[11] = system: S. aureus clinical isolate SA 138; assay: MIC assay (broth microdilution, CLSI); settings: Staphylococcus aureus, read-out: MIC, SA 138
[12] = system: S. aureus clinical isolate SA 156; assay: MIC assay (broth microdilution, CLSI); settings: Staphylococcus aureus, read-out: MIC, SA 156

Q: Which MIC ([1]; Table 2A) does the source give for `Oc1c(Br)cc(Br)c2nc3cc(Cl)c(Cl)cc3nc12` [Compound 16] here?
A: 12.5 µM (≈ 5.29 µg/mL)

Q: What about the MIC ([1]; Table 2B, b lowest concentration tested) of the same compound?
A: 12.5 µM (≈ 5.29 µg/mL)

Q: And the MIC ([2]; Table 2A, read-out: MIC, Staphylococcus epidermidis (ATCC 12228))?
A: 0.05 to 0.1 µM (≈ 0.0211 to 0.0423 µg/mL)

Q: And the MIC ([2]; Table 7, b lowest concentration tested, read-out: MIC, S. epidermidis 12228)?
A: 0.08 µM (≈ 0.0338 µg/mL)

Q: And the MIC ([3]; Table 2A, read-out: MIC, Staphylococcus epidermidis (ATCC 35984))?
A: 0.2 to 0.39 µM (≈ 0.0846 to 0.165 µg/mL)

Q: What about the MIC ([3]; Table 2B, read-out: MIC, Staphylococcus epidermidis (ATCC 35984)) of the same compound?
A: 0.3 µM (≈ 0.127 µg/mL)

Q: And the MIC ([3]; Table 7, read-out: MIC, MRSE 35984)?
A: 0.3 to 0.59 µM (≈ 0.127 to 0.25 µg/mL)

Q: And the “MIC, MRSE 35984” value ([3]; Table 7)?
A: 0.30^a μM

Q: And the MIC ([4]; Enterococcus faecium, Table 2A, read-out: MIC, Enterococcus faecium (ATCC 700221))?
A: 0.39 µM (≈ 0.165 µg/mL)

Q: What about the MIC ([4]; Enterococcus faecium, Table 2B, b lowest concentration tested, read-out: MIC, Enterococcus faecium (ATCC 700221)) of the same compound?
A: 0.39 µM (≈ 0.165 µg/mL)

Q: What about the MIC ([4]; Table 7, b lowest concentration tested, read-out: MIC, VRE 700221) of the same compound?
A: 0.39 µM (≈ 0.165 µg/mL)

Q: And the MIC ([5]; 168 h, M. tuberculosis H37Ra, 7 days, read-out: Mtb MIC)?
A: 6.25 µM (≈ 2.64 µg/mL)

Q: And the MIC ([5]; Table 7, read-out: MIC, M. tuberculosis H37Ra)?
A: 6.25 µM (≈ 2.64 µg/mL)

Q: And the IC50 at 24 h (in vitro)?
A: > 100 µM

Q: What about the IC50 (HeLa cells) of the same compound?
A: > 100 µM

Q: What about the “% Hemolysis (200 μM)” value (human red blood cells) of the same compound?
A: ≤1%

Q: And the MBC ([6]; Table 5, read-out: VRE MBC)?
A: 0.39 µM (≈ 0.165 µg/mL)

Q: And the MBC ([6]; Table 8, read-out: VRE 700221 MBC)?
A: 0.39 µM (≈ 0.165 µg/mL)

Q: And the “VRE MBEC” value ([6]; Table 5)?
A: 0.39/0.39 μM

Q: What about the MIC (MRSA-2; MRSA-2, without Tiron, read-out: MIC) of the same compound?
A: 12.5 µM

Q: And the MIC (MRSA-2; MRSA-2, b lowest concentration tested, read-out: MIC with Tiron)?
A: 0.1 µM

Q: What about the MIC (S. epidermidis 12228; S. epidermidis 12228, without Tiron, read-out: MIC) of the same compound?
A: 0.1 µM

Q: And the MIC (S. epidermidis 12228; S. epidermidis 12228, read-out: MIC with Tiron)?
A: 0.1 µM

Q: And the MIC (E. faecium 700221 (VRE); VRE 700221, without Tiron, read-out: MIC)?
A: 0.39 µM

Q: And the MIC (E. faecium 700221 (VRE); VRE 700221, read-out: MIC with Tiron)?
A: 0.39 µM

Q: What about the “adverse side effects (changes in weight, seizure, death)” value [7] of the same compound?
A: no adverse side effects

Q: And the MIC (MRSA BAA-1707)?
A: 25 µM (≈ 10.6 µg/mL)

Q: And the MIC (MRSA BAA-44)?
A: 50 µM (≈ 21.1 µg/mL)

Q: And the MBC [8]?
A: 6.25 µM (≈ 2.64 µg/mL)

Q: For `COc1cccc(OC)c1C(=O)N[C@@H]1C(=O)N2[C@@H]1SC(C)(C)[C@@H]2C(=O)O` [Methicillin, methicillin, reference compound], which MIC [9] is on record?
A: 0.8 to 1.56 µM (≈ 0.304 to 0.593 µg/mL)

Q: And the MIC [10]?
A: 25 µM (≈ 9.51 µg/mL)

Q: And the MIC [11]?
A: 25 µM (≈ 9.51 µg/mL)

Q: What about the MIC [12] of the same compound?
A: 50 µM (≈ 19 µg/mL)

From US20180312473A1, “PHENAZINE DERIVATIVES AS ANTIMICROBIAL AGENTS” (priority 2015, published 2018)
